One assay deals with TM3 cells. The experiment in a line: CCK8 cell viability of H2O2 damaged TM3 cells. The settings on record: inhibitor pretreated 1 h, then 62.5 μg/mL CYCSE 24 h, 0.4 mM H2O2 2 h. It counts as cell-based, mouse. As to the method:
TM3 cells: purchased from Shanghai Cell Bank of the Chinese Academy of Sciences. The culture conditions are DMEM/F12+5% horse serum+2.5% fetal bovine serum+1% penicillin-streptomycin, 37° C., 5% CO2 incubator. TM3 cells were placed in a 96-well plate at a density of 3×10^4 cells/mL and divided into 6 groups: control group, H2O2 group, CYCSE group, ERK inhibitor ([…] group, AKT inhibitor ([…] group, and sildenafil group. After the two inhibitors were pretreated for 1 […] was added and processed for 24 h, and 0.4 mM H2O2 was added and processed for 2 h. After the two kinds of cells were treated separately, CCK8 was added and incubated at 37° C. for 1 h. A microplate reader was used to measure absorbance at 450 nm and calculate the cell viability.

Assay [1] relates to ERK and AKT signal pathways in TM3 cells. Briefly: Western blot of p-ERK/ERK and p-AKT/AKT in TM3 cells. The class given is cell-based, mouse. The conditions noted are these: H2O2 damaged TM3 cells. As to the method: TM3 cells: purchased from Shanghai Cell Bank of the Chinese Academy of Sciences. The culture conditions are DMEM/F12+5% horse serum+2.5% fetal bovine serum+1% penicillin-streptomycin, 37° C., 5% CO2 incubator. TM3 cells were placed in a 96-well plate at a density of 3×10^4 cells/mL and divided into 6 groups: control group, H2O2 group, CYCSE group, ERK inhibitor ([…] group, AKT inhibitor ([…] group, and sildenafil group. After the two inhibitors were pretreated for 1 […] was added and processed for 24 h, and 0.4 mM H2O2 was added and processed for 2 h. The TM3 cells or the MCECs were placed in 6-well plates, and the CYCSE was added to process for 24 h and 0.4 mM H2O2 to process for 2 h. The cells were collected and washed twice with PBS, wherein supernatant was discarded. The testicular tissue in liquid nitrogen was ground into powder. 200 μL of RIPM lysis solution (containing 1% PMSF) was added to each of the above samples to lyse on ice for 30 min and centrifuge at 12000 r for 10 min at 4° C., wherein supernatant was stored at -20° C. for later use. A BCA protein content detection kit was used to determine protein content in the samples and to adjust protein concentration to the same level. An equal volume of 2× loading buffer was added to an appropriate amount of the extracted protein sample, which was mixed well, boiled for 10 min, and stored at -20° C. […]
On the technique in general: In western blotting, separated proteins are transferred to a membrane and probed.

Assay [2] concerns kidney-yang deficiency rats. Briefly: Body weight, organ weight and routine indicators in hydrocortisone-induced kidney-yang deficiency rat model. The class given is in vivo, SD rats. The settings on record: HCT 10 d + 4.4 mg/kg sildenafil 10 d. On the procedure:
SD rats were randomly divided into 5 groups with 10 rats in each group. The SD rats were fed with 25 mg/kg hydrocortisone (HCT) for 10 days to construct a kidney-yang deficiency model, and then gave different concentrations of the CYCSE for 10 days. Specific groups were as follows: control group (distilled water 20 d); kidney-yang deficiency group (HCT 10 d+distilled water 10 […] low-concentration group (HCT 10 d+60 mg/kg […] high-concentration group (HCT 10 d+80 mg/kg […]); sildenafil group (HCT 10 d+4.4 mg/kg sildenafil 10 d). After treatment, the rats were anesthetized by intraperitoneal injection of 3% sodium pentobarbital.

For assay [3], the system named is testis tissue of kidney-yang deficiency rats. Briefly: Testicular tissue morphology (HE staining) in kidney-yang deficiency rats. The class given is in vivo, SD rats. The settings on record: HCT 10 d + 4.4 mg/kg sildenafil 10 d. On the procedure: (§1) SD rats were randomly divided into 5 groups with 10 rats in each group. The SD rats were fed with 25 mg/kg hydrocortisone (HCT) for 10 days to construct a kidney-yang deficiency model, and then gave different concentrations of the CYCSE for 10 days. Specific groups were as follows: control group (distilled water 20 d); kidney-yang deficiency group (HCT 10 d+distilled water 10 d); CYCSE low-concentration group (HCT 10 d+60 mg/kg CYCSE 10 d); CYCSE high-concentration group (HCT 10 d+80 mg/kg CYCSE 10 d); sildenafil group (HCT 10 d+4.4 mg/kg sildenafil 10 d). After treatment, the rats were anesthetized by intraperitoneal injection of 3% sodium pentobarbital.
(§2) Cavernosum tissue and testicular tissue were fixed in 4% paraformaldehyde, and then embedded in paraffin and sectioned. Testicular tissue sections were stained with hematoxylin-eosin method and Masson method respectively. Cavernosum tissue sections were stained with hematoxylin-eosin method. The testicular tissue sections were processed by immunohistochemistry, and testicular leydig cells were labeled with 3β-HSD antibody. A Nikon posture microscope was used to take photos.

Assay [4] relates to primary cavernous endothelial cells (MCECs). Briefly: CCK8 cell viability of H2O2 damaged MCECs. It counts as cell-based, C57BL/6 mice. The conditions noted are these: CYCSE 31.3 and 62.5 μg/mL or sildenafil 24 h, then 0.4 mM H2O2 2 h; dose-dependent. The text has this:
Eight-week-old C57BL/6J mice were sacrificed by cutting necks. Lower abdomen was sterilized with alcohol cotton balls, a lower abdomen incision was made with tweezers and surgical scissors, and the abdominal fascia and foreskin glands were peeled off to expose cavernosum tissue. The cavernosum tissue was separated with surgical scissors and placed in Hank's balanced salt solution containing 10% penicillin-streptomycin, and urethra and neurovascular bundles were removed under microscope to obtain clean cavernosum tissue. The obtain tissue was washed 3 times in PSB containing 10% penicillin-streptomycin, cut into small pieces of 1-2 mm^3 with surgical scissors, and placed at bottoms of a pre-cooled 24-well plate with 2 pieces in each well. Each well was supplemented with 200 μL Matrigel containing 50 ng/mL VEGF-A. The MCECs were cultured in a simulated 3D environment to induce proliferation. Then the MCECs were incubate in a 37° C., 5% CO2 incubator for 14 days until the bottoms of the wells were full. After aspirating the medium, 200 μL Dispase was added to each well for digestion in the incubator for 1 h, and an equal volume of 10 mM EDTA was added to stop the digestion. […] A microplate reader was used to measure absorbance at 450 nm and calculate the cell viability.

The test system of the next assay is testicular leydig cells. The experiment in a line: Immunohistochemistry of testicular leydig cells (3β-HSD). The conditions noted are these: HCT 10 d + 4.4 mg/kg sildenafil 10 d. It counts as in vivo, SD rats. Set-up: key: negative (−); weakly positive (+); ranging from negative (−) to weakly positive (+) to strong positive (+++); strong positive (+++). On the procedure:
as §1, §2

Assay [5] relates to sperm of kidney-yang deficiency rats. The experiment in a line: Sperm count and vitality check. The class given is in vivo, SD rats. The settings on record: HCT 10 d + 4.4 mg/kg sildenafil 10 d. As to the method: SD rats were randomly divided into 5 groups with 10 rats in each group. The SD rats were fed with 25 mg/kg hydrocortisone (HCT) for 10 days to construct a kidney-yang deficiency model, and then gave different concentrations of the CYCSE for 10 days. Specific groups were as follows: control group (distilled water 20 d); kidney-yang deficiency group (HCT 10 d+distilled water 10 […] low-concentration group (HCT 10 d+60 mg/kg […] high-concentration group (HCT 10 d+80 mg/kg […]); sildenafil group (HCT 10 d+4.4 mg/kg sildenafil 10 d). After treatment, the rats were anesthetized by intraperitoneal injection of 3% sodium pentobarbital. At the end of administration, epididymis samples were collected, excess tissue was removed, and blood was washed away with saline. The samples were fixed with tweezers, so as to cut a tail side of the epididymis longitudinally. The sperm was released in a petri dish containing PBS, and a hemocytometer was used to detect number and viability of the sperm under a microscope after waiting at room temperature for 10 minutes (sperm viability is divided into 4 levels: a) move forward rapidly in a straight line, b) move forward slowly in a straight line, c) move locally, d) no move).

The test system of the next assay is NO/cGMP signal pathway. The experiment in a line: ELISA of iNOS and cGMP in kidney-yang deficiency rats. The conditions noted are these: CYCSE 60, 80 mg/kg; sildenafil 4.4 mg/kg; vs model group. It counts as in vivo, SD rats. On the procedure: SD rats were randomly divided into 5 groups with 10 rats in each group. The SD rats were fed with 25 mg/kg hydrocortisone (HCT) for 10 days to construct a kidney-yang deficiency model, and then gave different concentrations of the CYCSE for 10 days. Specific groups were as follows: control group (distilled water 20 d); kidney-yang deficiency group (HCT 10 d+distilled water 10 […] low-concentration group (HCT 10 d+60 mg/kg […] high-concentration group (HCT 10 d+80 mg/kg […]); sildenafil group (HCT 10 d+4.4 mg/kg sildenafil 10 d). After treatment, the rats were anesthetized by intraperitoneal injection of 3% sodium pentobarbital. After the animal was anesthetized, blood was taken from the celiac artery and spontaneously coagulated for 25 min, and centrifuged at 2500 rpm/min for 10 min at 4° C. Supernatant was collected, namely serum samples. Contents of inducible nitric oxide synthase (iNOS), cyclic guanosine phosphate (cGMP) and testosterone in serum were detected according to instructions of rat ELISA test kit (BPRO, Shanghai, China).
(ELISA stands for enzyme-linked immunosorbent assay.)

For assay [6], the system named is mice with oligoasthenospermia induced by tripterygium glycosides. The conditions noted are these: cited from earlier work.

These results are taken from patent US20230248797A1, “Method for preparing medicine with Chinese yam protein extract for treating erectile dysfunction” (priority 2020, published 2023).

For `COc1cccc(-c2cc(=O)c3ccccc3o2)c1N` [PD98059], the “Effect of inhibitor on the protective effect of CYCSE on TM3 cell viability” value in the assay with TM3 cells is “significantly block the protective effect”. Also, the “CYCSE-induced increase of p-ERK/ERK and p-AKT/AKT in TM3 cells with inhibitor” value in assay [1] was “significantly down-regulated”.
For the molecule `CCCc1nn(C)c2c(=O)[nH]c(-c3cc(S(=O)(=O)N4CCN(C)CC4)ccc3OCC)nc12` [Sildenafil], in assay [2], the Body weight was determined as 329.37 ± 10.82 g, the Epididymal weight was found to be 0.85 ± 0.01 g and the Testicular weight was determined as 3.03 ± 0.06 g. In addition, in assay [3], the “Diameter of seminiferous tubules” value is reported as 357.61 ± 8.03 μm and the “Germinal cell layer thickness” value is 72.50 ± 5.47 μm. Further, in assay [4], the “Cell viability of oxidation-damaged MCECs” value is given as “no salvage effect”. Moreover, the “Immunoexpression of 3β-HSD (testicular leydig cells)” value in the assay with testicular leydig cells is “+”. In addition, in assay [5], the Sperm number is listed as 4.63 ± 0.56^Δ *10^6/mL. The Sperm motility a in assay [5] (grade a) was 17.67 ± 2.05^Δ %. Further, the “Sperm motility a + b” value in [5] (grades a + b) is 37.67 ± 2.05^ΔΔ %. Further, in the assay on NO/cGMP signal pathway, the cGMP content result is “no significant difference between the sildenafil group and the high concentration group”; the iNOS content result was “no significant difference between the sildenafil group and the high concentration group”.
Regarding `C[C@@H]1CC[C@@]2(OC1)O[C@H]1C[C@H]3[C@@H]4CC=C5C[C@@H](O)CC[C@]5(C)[C@H]4CC[C@]3(C)[C@H]1[C@@H]2C` [diosgenin], in [6], the Erectile latency entry is on record as “shorten”; the “MDA content in testicular tissues” value is “reduce”; the “Organ coefficient of reproductive organs and immune organs” value is listed as “improve”; the “SOD activity in testicular tissues” value is on record as “increase”. Besides, in assay [6], the Sperm quality entry is “improve”.
